From US20160207930A1 (LEO PHARMA A/S, priority 2013, published 2016) come the findings set out here.

One data set addresses T1, NK1 Receptor (Homo sapiens, UniProt P25103).
T1 construct: Measurement of NK1 Receptor Mediated Intracellular [Ca^2+]; Mobilization in U251 MG Cells Using FLIPR; endogenous in cells; host or cells: U251 MG cells
The experiment in a line: NK1 receptor mediated intracellular [Ca2+] mobilization in U251 MG cells using FLIPR. It counts as cell-based. The following applies: antagonism of Substance P (EC80), Fluo-4, read-out: NK1R mediated intracellular [Ca^2+] mobilization IC 50. The essentials: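 Fluo-4-loaded U251 MG cells preincubated with compound (0.5% DMSO final), checked 5 min for agonism, then 10 min at 37 °C before Substance P at EC80. Peak fluorescence change on FLIPR, normalized to 100 nM Aprepitant maximal response; IC50 by four-parameter logistic fit, reported as pIC50.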

The nature of data set [1]: Hepatic intrinsic clearance following incubation in human liver microsomes. It counts as in vitro ADME. Conditions: 0.5 μM test compound, NADPH, 0-30 min, scaled to g liver. The essentials:
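Compound incubated at 37° C with microsomes diluted to 0.55 mg/mL protein in 50 mM potassium phosphate pH 7.4 plus NADPH regenerating system; sampled 0–30 min and analysed by LC-MS/MS. Clint from ln(% parent remaining) slope, scaled to mL/min/g liver; Eh derived assuming 25.7 g/kg liver, 20.7 mL/min/kg blood flow.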

Bounds are passed on as bounds.

T1 sequence (P25103 whole entry): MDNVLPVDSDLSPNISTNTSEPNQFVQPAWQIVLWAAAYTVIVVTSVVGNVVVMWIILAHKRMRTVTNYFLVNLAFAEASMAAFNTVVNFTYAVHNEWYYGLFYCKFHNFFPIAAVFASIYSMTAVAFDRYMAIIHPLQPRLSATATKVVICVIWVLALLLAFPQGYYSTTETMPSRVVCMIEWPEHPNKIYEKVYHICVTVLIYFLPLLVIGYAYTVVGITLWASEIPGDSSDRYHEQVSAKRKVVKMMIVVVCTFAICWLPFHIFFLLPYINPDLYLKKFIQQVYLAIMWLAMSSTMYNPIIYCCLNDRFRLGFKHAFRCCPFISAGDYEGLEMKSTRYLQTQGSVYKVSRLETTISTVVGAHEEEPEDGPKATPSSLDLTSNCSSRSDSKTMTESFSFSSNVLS

With `C[C@H](c1cc(C(F)(F)F)cc(C(F)(F)F)c1)N(C)C(=O)N1CCN2C(=O)CC[C@H]2[C@@H]1c1ccccc1CO` [Compound 74, (1S,8aS)—N—((R)-1-(3,5-bis(trifluoromethyl)phenyl)ethyl)-1-(2-(hydroxymethyl)phenyl)-N-methyl-6-oxohexahydropyrrolo[1,2-a]pyrazine-2(1H)-carboxamide], the IC50 on NK1 Receptor came out at 110 pM. In addition, in data set [1], the “Human in vitro Clint” value is over 200 mL/min/g.

In the case of `Cc1csc([C@H]2[C@@H]3CCC(=O)N3CCN2C(=O)N(C)[C@H](C)c2cc(C(F)(F)F)cc(C(F)(F)F)c2)c1C` [Compound 75, (1R,8aS)—N—((R)-1-(3,5-bis(trifluoromethyl)phenyl)ethyl)-1-(3,4-dimethylthiophen-2-yl)-N-methyl-6-oxohexahydropyrrolo[1,2-a]pyrazine-2(1H)-carboxamide], the IC50 at NK1 Receptor worked out at 340 pM. Besides, the “Human in vitro Clint” value in data set [1] was over 200 mL/min/g.

For `CCc1cc([C@@H](C)N(C)C(=O)N2CCN3C(=O)CC[C@H]3[C@@H]2c2scc(C)c2C)cc(C(F)(F)F)c1` [Compound 76, (1R,8aS)-1-(3,4-dimethylthiophen-2-yl)-N—((R)-1-(3-ethyl-5-(trifluoromethyl)phenyl)ethyl)-N-methyl-6-oxohexahydropyrrolo[1,2-a]pyrazine-2(1H)-carboxamide], the IC50 on NK1 Receptor worked out at 260 pM. For the same compound, the “Human in vitro Clint” value in data set [1] is over 200 mL/min/g.

As for `COc1cccc([C@H]2[C@@H]3CCC(=O)N3CCN2C(=O)N(C)[C@H](C)c2cc(C(F)(F)F)cc(C(F)(F)F)c2)c1C` [Compound 77, (1S,8aS)—N—((R)-1-(3,5-bis(trifluoromethyl)phenyl)ethyl)-1-(3-methoxy-2-methylphenyl)-N-methyl-6-oxohexahydropyrrolo[1,2-a]pyrazine-2(1H)-carboxamide], at NK1 Receptor, the IC50 was 520 pM. Besides, the “Human in vitro Clint” value in data set [1] was over 200 mL/min/g.

For `COc1cccc([C@H]2[C@@H]3CCC(=O)N3CCN2C(=O)N(C)[C@H](C)c2cc(C(C)C)cc(C(F)(F)F)c2)c1C` [Compound 78, (1S,8aS)—N—((R)-1-(3-isopropyl-5-(trifluoromethyl)phenyl)ethyl)-1-(3-methoxy-2-methylphenyl)-N-methyl-6-oxohexahydropyrrolo[1,2-a]pyrazine-2(1H)-carboxamide], the IC50 at NK1 Receptor worked out at 1860 pM. Further, the “Human in vitro Clint” value in data set [1] is over 200 mL/min/g.

Consider `C[C@H](c1cc(C(F)(F)F)cc(C(F)(F)F)c1)N(C)C(=O)N1CCN2C(=O)CC[C@H]2[C@@H]1c1cccc2c1CCC2` [Compound 79, (1S,8aS)—N—((R)-1-(3,5-bis(trifluoromethyl)phenyl)ethyl)-1-(2,3-dihydro-1H-inden-4-yl)-N-methyl-6-oxohexahydropyrrolo[1,2-a]pyrazine-2(1H)-carboxamide], for which, on NK1 Receptor, the IC50 is 2570 pM. Besides, in data set [1], the “Human in vitro Clint” value is over 200 mL/min/g.

For `CCc1cc([C@@H](C)N(C)C(=O)N2CCN3C(=O)CC[C@H]3[C@@H]2c2cccc3c2CCC3)cc(C(F)(F)F)c1` [Compound 80, (1S,8aS)-1-(2,3-dihydro-1H-inden-4-yl)-N—((R)-1-(3-ethyl-5-(trifluoromethyl)phenyl)ethyl)-N-methyl-6-oxohexahydropyrrolo[1,2-a]pyrazine-2(1H)-carboxamide], the IC50 on NK1 Receptor stood at 790 pM. Moreover, the “Human in vitro Clint” value in data set [1] was over 200 mL/min/g.

Consider `CC(C)c1cc([C@@H](C)N(C)C(=O)N2CCN3C(=O)CC[C@H]3[C@@H]2c2cccc3c2CCC3)cc(C(F)(F)F)c1` [Compound 81, (1S,8aS)-1-(2,3-dihydro-1H-inden-4-yl)-N—((R)-1-(3-isopropyl-5-(trifluoromethyl)phenyl)ethyl)-N-methyl-6-oxohexahydropyrrolo[1,2-a]pyrazine-2(1H)-carboxamide], for which the IC50 on NK1 Receptor was 3500 pM. In data set [1], the “Human in vitro Clint” value was over 200 mL/min/g.

For the compound `Cc1cccc(F)c1[C@H]1[C@@H]2CCC(=O)N2CCN1C(=O)N(C)[C@H](C)c1cc(C(F)(F)F)cc(C(F)(F)F)c1` [Compound 82, (1S,8aS)—N—((R)-1-(3,5-bis(trifluoromethyl)phenyl)ethyl)-1-(2-fluoro-6-methylphenyl)-N-methyl-6-oxohexahydropyrrolo[1,2-a]pyrazine-2(1H)-carboxamide], the IC50 on NK1 Receptor is 130 pM. Also, the “Human in vitro Clint” value in data set [1] is over 200 mL/min/g.

As for `C[C@H](c1cc(C(F)(F)F)cc(C(F)(F)F)c1)N(C)C(=O)N1CCN2C(=O)CC[C@H]2[C@@H]1c1ccc(F)cc1` [Compound 85, (1S,8aS)—N—((R)-1-(3,5-bis(trifluoromethyl)phenyl)ethyl)-1-(4-fluorophenyl)-N-methyl-6-oxohexahydropyrrolo[1,2-a]pyrazine-2(1H)-carboxamide], the IC50 at NK1 Receptor is 100000 pM. The “Human in vitro Clint” value in data set [1] is over 200 mL/min/g.
